Earlier results as cited in US20080108695A1, “Method of Treating Asthma, Allergic Rhinitis, and Skin Disorders” (Alcon Manufacturing Ltd., priority 2006, published 2008).

Key:
[1] = system: neutrophils; details: potency compared with lipoxin A4; literature report of Lee et al.
[2] = target: T1, ALXR (formyl peptide receptor FPRL-1) (Homo sapiens, UniProt P25090); details: lipoxin A4 cognate receptor; background statement
T1 sequence (P25090 1-351): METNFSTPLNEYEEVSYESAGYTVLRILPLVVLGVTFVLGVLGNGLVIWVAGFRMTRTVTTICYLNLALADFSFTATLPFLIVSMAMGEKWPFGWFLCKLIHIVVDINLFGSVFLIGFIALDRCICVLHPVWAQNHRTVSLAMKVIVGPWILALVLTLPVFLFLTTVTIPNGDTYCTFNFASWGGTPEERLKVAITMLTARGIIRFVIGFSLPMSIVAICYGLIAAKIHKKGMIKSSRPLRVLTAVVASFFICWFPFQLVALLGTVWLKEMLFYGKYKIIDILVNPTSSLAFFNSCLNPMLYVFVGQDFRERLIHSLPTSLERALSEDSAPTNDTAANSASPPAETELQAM

[3] = target: T2, cysLT1 (Homo sapiens, UniProt Q9Y271); details: high affinity receptor for LTD4; background statement
T2 sequence (Q9Y271 1-337): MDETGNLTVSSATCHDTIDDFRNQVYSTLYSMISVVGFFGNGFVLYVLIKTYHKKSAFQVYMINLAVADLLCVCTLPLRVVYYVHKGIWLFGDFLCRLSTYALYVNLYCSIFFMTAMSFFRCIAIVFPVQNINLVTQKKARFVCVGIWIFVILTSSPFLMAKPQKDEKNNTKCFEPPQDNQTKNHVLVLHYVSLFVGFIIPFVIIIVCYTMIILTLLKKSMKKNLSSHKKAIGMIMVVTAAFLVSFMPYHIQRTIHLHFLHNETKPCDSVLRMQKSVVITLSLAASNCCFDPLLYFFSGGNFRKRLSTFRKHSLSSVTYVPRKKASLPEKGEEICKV

| SMILES | inhibition of LTB4-induced chemotaxis of neutrophils [1] | binding affinity for ALXR [2] | binding affinity for cysLT1 [3] |
| --- | --- | --- | --- |
| COC(=O)CCC[C@H](O)[C@H](O)CO [Compound 1] | as potently as lipoxin A4 |  |  |
| CCCCC[C@H](O)[C@H](O)CO [Compound 2] | as potently as lipoxin A4 |  |  |
| CCCCC[C@H](O)/C=C/C=C\C=C\C=C\[C@@H](O)[C@@H](O)CCCC(=O)O [Lipoxin A4] |  | nM affinity | nM affinity |
